Bridge positions count the residues as written; N and C are the ends. Square brackets hold non-standard residues; d marks the D form. Peptide text beside a SMILES is read from it. * marks the point of attachment. Ileψ(thiazoline)Cys = CC[C@H](C)[C@H](N)C1=N[C@H](C(=O)*)CS1; dOrn = NCCC[C@@H](N)C(=O)O
How the values were obtained:
pigs = assay: Pig feed conversion experiment (Example 3); assay type: in vivo; settings: for feed conversion (total consumed feed / total weight gain): day 0 through day 26
Description: The objective of the experiment for Example 3 was to evaluate if MDP analogs promote growth in mammals as they do in birds. Pigs were selected as an animal model for the mammalian study. This experiment was designed to contrast the effect of a low dose of 0.1 mg mifamurtide/kg feed on growth and feed conversion to untreated control pigs and to pigs treated with 50 mg carbadox/kg feed, an industry-standard AGP used in pigs.
Pigs were weaned at 3-4 weeks of age and allotted based on weight and gender to one of 15 nursery pens with 6 pigs per pen (90 total pigs). Sex of the pigs was balanced within pens in a weight block. Dietary treatments were randomly assigned within weight blocks to pens of pigs. Three dietary treatments were administered in the phase 1 and 2 diets. Phase 1 diets were fed from day 0-14 post-weaning. On day 14 post-weaning, pigs were switched to phase 2 diets, which were fed until day […]. Treatment 1 was the untreated negative control diet without any growth-promoting supplement. […] Feed intake was monitored for each pen and weigh period. […]
The overall (true) feed conversion for each group was determined by dividing total consumed feed by total weight gains of all pigs of each treatment. […] Body weight gain and calculated feed consumption data were analyzed by one-way ANOVA and Tukey Honest True Difference correction for multiple comparisons. For determination of feed conversion of individual pigs, calculated total feed consumption of each pig was divided by total measured weight gain of the pig. […] Group differences in feed conversion were evaluated by non-parametric Mann Whitney U test.
Individual daily feed consumption per pig was computed by a mathematical model from individual body weights determined over the course of the 26-day experiment, and from total weighed feed consumed by each pen. […] The model first linearly interpolates body weights between the actual measured body weights of the pigs. Based on the calculated daily body weight, the daily feed consumption is then calculated as 4% of body weight. […]

broiler chickens [1] = assay: Broiler chicken growth and feed conversion experiment (Example 2, without microbiome seed chickens); assay type: in vivo, chickens (male Cobb×Cobb); settings: for growth rate (percent body weight gain) / increased growth over the 236.2% rate of untreated control chickens: day 15 to 32; for feed conversion relative to untreated control chickens: no microbiome seed chickens
Description: The objective of the experiment was to compare the effect of 1) a low dose of 0.1 mg mifamurtide/kg feed; and 2) an intermediate dose of 0.57 mg romurtide/kg feed, a different MDP analog, to 50 mg bacitracin/kg feed and non-supplemented feed (untreated control chickens). Both the effect on feed conversion and on growth rates, i. e. the dual criteria for growth promotion, were examined.
Two-hundred day-of-hatch male Cobb×Cobb chickens were randomly assigned at 50 each to one of four groups: no feed supplementation; bacitracin at 50 mg/kg of feed; mifamurtide at 0.1 mg/kg of feed; or romurtide at 0.57 mg/kg of feed. Microbiome seed chickens were not used, and individual body weights of all birds were recorded on days 15 and 32. All other experimental parameters followed Example 1.

broiler chickens [2] = assay: Broiler chicken feed conversion experiment (Example 1, with microbiome seed chickens); assay type: in vivo, chickens (male Ross×Ross); settings: for feed conversion (total consumed feed / total weight gain): days 0 through day 32
Description: The primary objective of this experiment was to evaluate if supplementation of feed with mifamurtide at 1.9 mg/kg feed improves feed conversion in broiler chickens, i.e., if broiler chickens require less feed for the same amount of gain in body weight. A secondary objective was to evaluate whether any such improvement compares favorably or unfavorably to improvement seen with bacitracin, an industry standard AGP. A third objective was to evaluate if fast versus slow acquisition of a healthy microbial flora (microbiome) by the experimental chickens influenced feed conversion. A fourth objective was to determine whether feed supplementation with bacitracin, a commonly used industry-standard antibiotic growth promoter, interacted with a potential influence of microbiome acquisition kinetics on feed conversion.
Two hundred day-of-hatch male Ross×Ross chicks were randomly assigned at 50 each to one of four groups: 1 negative control without microbiome seed chickens; 2 negative control with microbiome seed chickens; 3 bacitracin at 50 mg/kg of feed with microbiome seed chickens; or 4 mifamurtide at 1.9 mg/kg of feed with microbiome seed chickens. The mifamurtide was first mixed with 20 g Lactose (Lactochem Fine Powder, DFE Pharma, Germany), then mixed with corn meal to produce a 2% supplement to prepare the feed, which was fed to the birds ad libitum.
The microbiome seed chickens were healthy 21-day-old birds that had been raised on litter of fresh unused pine shavings, and had not been in contact with any other chickens, and thus had microbiomes characteristic of healthy grown birds. At start of the experiment, groups 2-4 of 50 study chicks were exposed to 10 microbiome seed chickens, which were removed on day 5 and were not counted in study results. The objective of the microbiome seed chickens was to rapidly induce a healthy microbiome in the freshly hatched experimental chickens. In contrast, the development of a normal healthy microbiome required more time in the control group without exposure to microbiome seed chickens.
All chicks were reared with a normal broiler starter in mash form, supplemented with amprolium at 113.5 mg/kg. Each group was raised in 5×10 feet floor pens at a stocking density of 1.0 square foot per bird on fresh pine shavings, in a solid-sided barn, with concrete floors, and under ambient humidity. Feed and water were available ad libitum throughout the trial. Thermostatically controlled gas heaters were the primary heat source for the barn, if needed. One heat lamp per pen provided supplemental heat during brooding. Fans were used to cool birds. […] Individual body weights of all birds were recorded on days 8, 21, and 32. […]
The overall (true) feed conversion for each group was determined by dividing total consumed feed by total weight gains of all chickens of the group. […] Calculated feed consumed by birds that died before termination of the experiment was subtracted from total weighed feed. Body weight gain and calculated feed consumption data were analyzed by one-way ANOVA and Tukey Honest True Difference correction for multiple comparisons, and graphs show means±95% confidence intervals. For determination of feed conversion of individual birds, calculated total feed consumption per bird was divided by total weight gain of the bird. […] Group differences in feed conversion were evaluated by non-parametric Mann Whitney U test, and error bars indicate 25-75 percentiles of calculated feed conversions of individual birds. […]

In the case of `COC(=O)N/N=C/c1c[n+]([O-])c2ccccc2[n+]1[O-]` [carbadox], the “more feed required for the same amount of weight gain than treatment with 0.1 mg/kg feed mifamurtide” value (pigs; carbadox 50 mg/kg feed until day 14, 25 mg/kg feed after day 14) is reported as 14.6% and the “feed conversion (total consumed feed / total weight gain)” value (pigs; carbadox 50 mg/kg feed until day 14, 25 mg/kg feed after day 14, weaned pigs) is reported as 1.692.

In the case of `CCCCCCCCCCCCCCCCCC(=O)NCCCC[C@H](NC(=O)CC[C@@H](NC(=O)[C@H](C)NC(=O)[C@@H](C)O[C@H]1[C@H](O)[C@@H](CO)OC(O)[C@@H]1NC(C)=O)C(N)=O)C(=O)O` (some centres unmarked) [romurtide], the “growth rate (percent body weight gain)” value (broiler chickens [1]; romurtide at 0.57 mg/kg feed) is reported as 267.4%, the “increased growth over the 236.2% rate of untreated control chickens” value (broiler chickens [1]; romurtide at 0.57 mg/kg feed) is reported as 13.2% and the “feed conversion relative to untreated control chickens” value (broiler chickens [1]; romurtide at 0.57 mg/kg feed, optimal husbandry) is reported as “did not decrease feed conversion”.

mifamurtide was tested, and the “growth rate (percent body weight gain)” value (broiler chickens [1]; mifamurtide at 0.1 mg/kg feed) was 259.5%, the “increased growth over the 236.2% rate of untreated control chickens” value (broiler chickens [1]; mifamurtide at 0.1 mg/kg feed) was 9.9% and the “feed conversion relative to untreated control chickens” value (broiler chickens [1]; mifamurtide at 0.1 mg/kg feed, optimal husbandry) was “did not decrease feed conversion”. The “feed conversion (total consumed feed / total weight gain)” value (pigs; 0.1 mg mifamurtide/kg feed, weaned pigs) was 1.476, the “feed conversion (total consumed feed / total weight gain)” value (broiler chickens [2]; 1.9 mg mifamurtide/kg feed, with microbiome seed chickens) was 1.605 g feed/g body weight gain and the “total feed consumed per chicken versus negative controls” value (broiler chickens [2]; mifamurtide 1.9 mg/kg feed, day 0 through day 32 (FIG. 1B)) was “consumed less feed”.

In the case of `CC[C@H](C)[C@H](N)C1=N[C@H](C(=O)N[C@@H](CC(C)C)C(=O)N[C@H](CCC(=O)O)C(=O)N[C@H](C(=O)N[C@H]2CCCCNC(=O)[C@H](CC(N)=O)NC(=O)[C@@H](CC(=O)O)NC(=O)[C@H](Cc3cnc[nH]3)NC(=O)[C@@H](Cc3ccccc3)NC(=O)[C@H]([C@@H](C)CC)NC(=O)[C@@H](CCCN)NC2=O)[C@@H](C)CC)CS1` [bacitracin] ({Ileψ(thiazoline)Cys}-L[dE]IK[dOrn]I[dF]H[dD]N; lactam 4-C), the “body weights on days 15 and 32, body weight gains and feed intake versus the three other treatments” value (broiler chickens [1]; bacitracin at 50 mg/kg feed) is reported as “significantly lower”, the “feed conversion rates versus the three other treatments” value (broiler chickens [1]; bacitracin at 50 mg/kg feed) is reported as “higher feed conversion rates” and the “effect on growth and feed conversion” value (broiler chickens [1]; bacitracin at 50 mg/kg feed, optimal husbandry, absence of a pathogenic microflora) is reported as “profoundly negative effect”. For the same compound, the “improvement in feed conversion over non-microbiome seeded untreated chickens” value (broiler chickens [2]; 50 mg/kg bacitracin treated, microbiome-seeded chickens) was 15.6%, the “more feed required than mifamurtide supplementation (1.9 mg/kg feed) for the same amount of weight gain” value (broiler chickens [2]; bacitracin at 50 mg/kg feed, with microbiome seed chickens, days 0-32) was 13.6% and the “feed conversion (total consumed feed / total weight gain)” value (broiler chickens [2]; bacitracin at 50 mg/kg feed, with microbiome seed chickens) was 1.823.
